Test results taken from PubChem BioAssay (NCI).
Where “and” joins values, the source holds several entries; their conditions need not be identical. Identical values can stand only once.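 Interpolation was linear, between the two tested concentrations surrounding the appropriate level; five concentrations were tested over 48 hours in 96-well plates. GI50 marks 50% less growth. At the TGI there is no net growth.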

Columns and labels:
Test in all cases: NCI-60 cell line screen, 48 h
OVCAR-5 ovarian = test system: OVCAR-5 ovarian
ACHN renal = test system: ACHN renal
LOX IMVI melanoma = test system: LOX IMVI melanoma
HL-60(TB) leukemia = test system: HL-60(TB) leukemia
DU-145 prostate = test system: DU-145 prostate
786-0 renal = test system: 786-0 renal
EKVX NSCLC = test system: EKVX NSCLC
COLO 205 colon = test system: COLO 205 colon
HT29 colon = test system: HT29 colon
SR leukemia = test system: SR leukemia

Compound	GI50 (OVCAR-5 ovarian) [µM]	TGI (OVCAR-5 ovarian) [µM]	GI50 (ACHN renal)	TGI (ACHN renal)	GI50 (LOX IMVI melanoma) [nM]	TGI (LOX IMVI melanoma)	GI50 (HL-60(TB) leukemia) [nM]	TGI (HL-60(TB) leukemia) [µM]	GI50 (DU-145 prostate) [nM]	TGI (DU-145 prostate) [µM]	GI50 (786-0 renal)	TGI (786-0 renal)	GI50 (EKVX NSCLC) [nM]	TGI (EKVX NSCLC) [µM]	GI50 (COLO 205 colon)	TGI (COLO 205 colon)	TGI (HT29 colon) [µM]	TGI (SR leukemia) [µM]	GI50 (SR leukemia) [nM]	GI50 (HT29 colon) [µM]
O=C1c2ccc3c4c(ccc(c24)C(=O)N1CCNCc1ccccc1)C(=O)N(CCNCc1ccccc1)C3=O	2.02	4.61	3.19 µM	13.5 µM	1670	3.16 µM	2090	4.91	2760	11.4	1.89 µM	3.59 µM	2030	6.02	1650 nM	3.01 µM	–	–	–	–
COc1cc(CC(=O)O)c([N+](=O)[O-])cc1OC	–	> 100	–	> 100 µM	–	> 100 µM	–	> 100	–	–	–	> 100 µM	–	> 100	–	> 100 µM	> 100	–	–	–
CCc1ncc(CO)n1Cc1cccc2ccccc12	–	> 100	–	> 100 µM	–	–	–	–	–	> 100	–	> 100 µM	–	> 100	–	> 100 µM	> 100	–	–	–
COc1ccc([C@@H]2OC(=O)C3C2C(=O)O[C@H]3c2ccc(OC)cc2)cc1 (some centres undefined)	–	–	–	> 100 µM	–	–	–	> 100	–	–	–	> 100 µM	–	> 100	–	> 100 µM	> 100	> 100	–	–
[CH3][Hg]/[N]=C(/N)NC#N	17.1	31	13.5 µM	26.4 µM	3290	14.9 µM	2760	> 100	–	–	10.2 µM	22.4 µM	–	–	1710 nM	3.09 µM	50.8	39.9	4390	19.9
Cc1cc(Cl)cc2c1NC(=O)C2(O)C(C(=O)c1ccccc1)c1ccccc1 (centres undefined)	–	> 100	43 µM and 18.8 µM	> 100 µM and 40.6 µM	–	> 100 µM and 46.1 µM	–	52.1	–	–	38.2 µM and 12.9 µM	> 100 µM and 29.3 µM	–	> 100	> 100000 nM and 15200 nM	> 100 µM and 30 µM	> 100	–	–	–
Cc1cc(C)c(/C=N/NS(=O)(=O)c2ccccc2)c(C)c1	–	> 100	–	> 100 µM	–	> 100 µM	–	> 100	–	–	–	> 100 µM	–	> 100	–	> 100 µM	> 100	> 100	–	–
COC(=O)C(C(=O)C(=O)Nc1ccccc1C)c1nc2ccc([N+](=O)[O-])cc2[nH]c1=O (centres undefined)	–	> 100	–	> 100 µM	–	> 100 µM	–	> 100	–	–	–	> 100 µM	–	> 100	–	> 100 µM	> 100	> 100	–	–
COc1ccc(/C=C/C(=O)/C=C(O)/C=C/c2ccc(OC)c(OC)c2)cc1OC	6.42	46.4	6.97 µM	> 100 µM	2540	17.9 µM	–	–	3720	> 100	3.03 µM	25.7 µM	4130	> 100	34400 nM	> 100 µM	22.3	> 100	1680	3.64
Cc1c(C(=O)c2ccccc2)[n+](=O)c2cc(F)c(F)cc2n1[O-]	18.7	33.8	1.66 µM	3.02 µM	1610	3.01 µM	–	–	10800	24.5	16.6 µM	31.2 µM	10400	33	3310 nM	11.5 µM	> 100	5.24	316	2.52
CCc1ccccc1NC(=O)C(=O)C1C(=O)N(c2ccccc2)N=C1N (centres undefined)	–	> 100	–	> 100 µM	–	> 100 µM	–	> 100	–	–	–	> 100 µM	–	> 100	–	–	> 100	–	–	–
COC1C(=O)CCC2(CO2)C1(O)C1(C)OC1CC=C(C)C (centres undefined)	–	> 100	–	> 100 µM	–	–	–	–	–	> 100	–	> 100 µM	–	> 100	–	> 100 µM	> 100	> 100	–	–
CC(=O)Nc1ccc(C2=N/C(=C\c3ccc(Cl)cc3)C(=O)O2)cc1	–	> 100	–	94 µM	–	35.6 µM	–	85.8	–	–	–	51.6 µM	–	> 100	–	> 100 µM	> 100	61.2	–	–
CCCCCCCCCCCCCCCCCC[S+](C)CC (centres undefined)	1.58	4.25	1.33 µM	2.96 µM	–	–	1170	3.8	1410	2.75	1.25 µM	2.66 µM	1950	4.31	1420 nM	2.81 µM	–	–	–	–
CC#CC#C/C(=C/C=CC(=O)OC)SC	–	> 100	–	–	–	> 100 µM	–	> 100	–	> 100	–	> 100 µM	–	> 100	–	> 100 µM	> 100	–	–	–
Cc1ccc(NC(=O)CC2SC(=Nc3ccc(Cl)cc3)NC2=O)cc1C (centres undefined)	–	33.1	–	29.6 µM	–	33.7 µM	–	9.12	–	–	–	32 µM	–	31.4	–	32.4 µM	33.2	29.4	–	–
Cc1cc(C)nc(NS(=O)(=O)c2ccc(NC(=O)COC(=O)c3cccc4c(=O)c5ccccc5[nH]c34)cc2)n1	–	58.9	–	> 100 µM	–	40.7 µM	–	63.9	–	–	–	58.9 µM	–	> 100	–	> 100 µM	> 100	76.4	–	–
CCN(CC)CC(O)c1cc(-c2ccc(Cl)cc2)nc2c(C)c(Cl)ccc12 (centres undefined)	1.74	3.37	1.63 µM	3.03 µM	1410	2.77 µM	2100	4.57	1700	3.08	1.69 µM	3.18 µM	1460	2.9	1770 nM	3.35 µM	2.94	–	–	1.55
CCOC(=O)C(=O)C(C#N)c1ccc(Cl)cc1 (centres undefined)	–	> 100	–	> 100 µM	–	> 100 µM	–	> 100	–	–	–	> 100 µM	–	> 100	–	> 100 µM	> 100	–	–	–
